Data taken from patent publication US11389455B2, “Inhibitors of HIV-1 integrase multimerization” (Institute for Cancer Research, priority 2017, dated 2022).
Like-named read-outs stand apart in the source and are kept apart here.

How the values were obtained:
[1] = biological target: Prototype Foamy Virus (PFV) integrase (Human spumaretrovirus, UniProt P14350); assay: Specificity: single end and concerted integration in vitro, PFV integrase; format: biochemical; conditions: Table 6
[2] = tested on: HeLa cells; assay: Cell toxicity during the infection experiment (Tox/Infect), 24 hours exposure; conditions: only 24 hours of exposure
[3] = tested on: HeLa cells
[4] = biological target: T1, Avian Sarcoma Virus integrase (UniProt P03354); assay: Specificity: single end and concerted integration in vitro, ASV integrase; format: biochemical; conditions: Table 6
T1 sequence (P03354 1281-1567): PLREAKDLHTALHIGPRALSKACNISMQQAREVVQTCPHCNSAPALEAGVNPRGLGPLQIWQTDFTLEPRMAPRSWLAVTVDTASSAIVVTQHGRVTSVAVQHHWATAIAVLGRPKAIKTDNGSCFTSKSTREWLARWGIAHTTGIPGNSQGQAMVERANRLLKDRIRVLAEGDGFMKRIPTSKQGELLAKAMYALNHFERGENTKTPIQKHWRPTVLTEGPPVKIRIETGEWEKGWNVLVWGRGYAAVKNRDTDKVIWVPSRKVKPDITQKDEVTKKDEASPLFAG

[5] = biological target: T2, HIV IN (Wild-type monomer) (Human immunodeficiency virus type 1 group M subtype B, UniProt P04585); format: biochemical, HIV-1; conditions: for I.I.(K Counts) CI/SI: ratio concerted/single end integration counts
T2 construct: 1 uM HIV IN (Wild-type monomer)

[6] = tested on: Envelope pseudotyped virus particles infecting HeLa cells; assay: Inhibition of infectivity, single round GFP reporter virus, percent GFP positive cells; conditions: read-out: Infectivity EC50
[7] = HeLa cells, compound exposure for 3 days, preliminary
[8] = Table 1, cross validation assay at compound concentration of 10 uM
[9] = Table 5, concerted integration, read-out: Concerted IC50
[10] = Table 5, single-end integration, read-out: Single End IC50
[11] = Table 6, read-out: HIV Concerted IC50
[12] = Table 6, read-out: HIV Single End IC50

Cn1ncnc2c(=O)n(C)c(=O)nc1-2 [Formula I-1]
IC50 ([1]; read-out: PFV Concerted IC50): > 1000 µM | IC50 ([1]; read-out: PFV Single End IC50): > 1000 µM | Tox/Infect LD50 [2]: >5 µM | Toxicity LD50 [3, 7]: 0.43 µM | IC50 ([4]; read-out: ASV Concerted IC50): > 100 µM | IC50 ([4]; read-out: ASV Single End IC50): > 100 µM | Relative % concerted integration [5, 8]: 3.84% | IC50 ([5]; Table 1, read-out: IC50 (concerted integration)): 0.2 µM | activity at 0.001 µM ([5]; Table 4, Form F3 (concerted integration), 0.001 uM, read-out: Rel % Activity): 99.6% | activity at 0.005 µM ([5]; Table 4, Form F3 (concerted integration), 0.005 uM, read-out: Rel % Activity): 83.8% | activity at 0.01 µM ([5]; Table 4, Form F3 (concerted integration), 0.01 uM, read-out: Rel % Activity): 92.4% | activity at 0.05 µM ([5]; Table 4, Form F3 (concerted integration), 0.05 uM, read-out: Rel % Activity): 78.2% | activity at 0.1 µM ([5]; Table 4, Form F3 (concerted integration), 0.1 uM, read-out: Rel % Activity): 75.3% | activity at 0.5 µM ([5]; Table 4, Form F3 (concerted integration), 0.5 uM, read-out: Rel % Activity): 17.4% | activity at 1 µM ([5]; Table 4, Form F3 (concerted integration), 1 uM, read-out: Rel % Activity): 6.42% | activity at 5 µM ([5]; Table 4, Form F3 (concerted integration), 5 uM, read-out: Rel % Activity): 0.705% | activity at 10 µM ([5]; Table 4, Form F3 (concerted integration), 10 uM, read-out: Rel % Activity): 0.419% | activity at 50 µM ([5]; Table 4, Form F3 (concerted integration), 50 uM, read-out: Rel % Activity): 0.366% | activity at 100 µM ([5]; Table 4, Form F3 (concerted integration), 100 uM, read-out: Rel % Activity): 0.453% | activity at 500 µM ([5]; Table 4, Form F3 (concerted integration), 500 uM, read-out: Rel % Activity): 0.433% | activity at 1000 µM ([5]; Table 4, Form F3 (concerted integration), 1000 uM, read-out: Rel % Activity): 1.34% | IC50 [5, 9]: 0.2 µM | IC50 [5, 10]: 1.25 µM | IC50 [5, 11]: 0.2 µM | IC50 [5, 12]: 1.25 µM | I.I.(K Counts) CI/SI ([5]; 0.001 uM): 1.336 | I.I.(K Counts) CI/SI ([5]; 0.005 uM): 1.067 | I.I.(K Counts) CI/SI ([5]; 0.01 uM): 1.193 | I.I.(K Counts) CI/SI ([5]; 0.05 uM): 1.007 | I.I.(K Counts) CI/SI ([5]; 0.1 uM): 0.978 | I.I.(K Counts) CI/SI ([5]; 0.5 uM): 0.331 | I.I.(K Counts) CI/SI ([5]; 1 uM): 0.159 | I.I.(K Counts) CI/SI ([5]; 5 uM): 0.034 | I.I.(K Counts) CI/SI ([5]; 10 uM): 0.022 | I.I.(K Counts) CI/SI ([5]; 50 uM): 0.020 | I.I.(K Counts) CI/SI ([5]; 100 uM): 0.026 | I.I.(K Counts) CI/SI ([5]; 500 uM): 0.033 | I.I.(K Counts) CI/SI ([5]; 1000 uM): 0.107 | activity at 0.005 µM ([5]; read-out: Rel % Activity): 106% | EC50 [6]: 0.3 µM

CCn1nc(-c2ccccn2)nc2c(=O)n(C)c(=O)nc1-2 [Formula I-2]
Relative % concerted integration [5, 8]: 6.33%

CCn1nc(-c2cccs2)nc2c(=O)n(C)c(=O)nc1-2 [Formula I-3]
Relative % concerted integration [5, 8]: 2.07%

CCn1nc(-c2cc(Br)ccc2F)nc2c(=O)n(C)c(=O)nc1-2 [Formula I-4]
Relative % concerted integration [5, 8]: 0.26%

CCn1nc(-c2ccc(C(F)(F)F)cc2)nc2c(=O)n(C)c(=O)nc1-2 [Formula I-5]
Relative % concerted integration [5, 8]: 0.72%

CCn1nc(-c2cc(Br)cs2)nc2c(=O)n(C)c(=O)nc1-2 [Formula I-6]
Relative % concerted integration [5, 8]: 1.72%

CCCc1nc2c(=O)n(C)c(=O)nc-2n(C)n1 [Formula I-7]
Relative % concerted integration [5, 8]: 0.07%

Cn1nc(-c2ccc(F)cc2)nc2c(=O)n(C)c(=O)nc1-2 [Formula I-8]
Relative % concerted integration [5, 8]: 0.42%

Cn1nc(-c2ccccc2)nc2c(=O)n(C)c(=O)nc1-2 [Formula I-9]
Relative % concerted integration [5, 8]: 2.73%

Cn1nc(-c2ccc(C(F)(F)F)cc2)nc2c(=O)n(C)c(=O)nc1-2 [Formula I-10]
Relative % concerted integration [5, 8]: 1.56%

Cn1nc(/C=C\c2ccccc2)nc2c(=O)n(C)c(=O)nc1-2 [Formula I-11]
Relative % concerted integration [5, 8]: 1.76%

Cn1nc(-c2ccc([N+](=O)[O-])cc2)nc2c(=O)n(C)c(=O)nc1-2 [Formula I-12]
Relative % concerted integration [5, 8]: 3.26%

CCc1ccc(-c2nc3c(=O)n(C)c(=O)nc-3n(CC)n2)cc1 [Formula I-13]
Toxicity LD50 ([3]; human, 3 days): 3.2 µM | Relative % concerted integration [5]: 7.07% (IC50 of 0.27 μM) | IC50 ([5]; Concerted IC50): 0.27 µM | IC50 ([5]; IC50 (concerted integration)): 0.27 µM | IC50 ([5]; Single End IC50): 1.4 µM

O=C(O)CCCCCNc1ccc([N+](=O)[O-])c2nonc12 [II-2]
Toxicity LD50 [3, 7]: >50 µM | IC50 ([5]; Concerted IC50): 500 µM | IC50 ([5]; Single End IC50): > 1000 µM

Nc1ccc(N2CCCCC2)c2nonc12 [II-3]
Toxicity LD50 ([3]; human, 3 days): 25 µM | IC50 ([5]; Concerted IC50): 15 µM | IC50 ([5]; Single End IC50): > 1000 µM

O=C(CCCCCNc1ccc([N+](=O)[O-])c2nonc12)ON1C(=O)CCC1=O [II-4]
IC50 ([1]; read-out: PFV Concerted IC50): > 390 µM | IC50 ([1]; read-out: PFV Single End IC50): > 350 µM | Tox/Infect LD50 [2]: >20 µM | Toxicity LD50 [3, 7]: >50 µM | IC50 ([4]; read-out: ASV Concerted IC50): 53 µM | IC50 ([4]; read-out: ASV Single End IC50): 175 µM | IC50 [5, 9]: 16 µM | IC50 [5, 10]: 71 µM | IC50 [5, 11]: 16 µM | IC50 [5, 12]: 65 µM | EC50 [6]: 5 µM

Cc1nnc(C(=O)NC(C)(C)c2nc(C(=O)NCc3ccc(F)cc3)c(O)c(=O)n2C)o1 [RAL, Raltegravir, reference compound]
IC50 ([1]; read-out: PFV Concerted IC50): 1 µM | IC50 ([1]; read-out: PFV Single End IC50): < 10 µM | Tox/Infect LD50 [2]: >10 µM | Toxicity LD50 [3, 7]: >20 µM | IC50 ([4]; read-out: ASV Concerted IC50): 0.6 µM | IC50 ([4]; read-out: ASV Single End IC50): 22 µM | EC50 [6]: 0.05 µM
